Source: patent US20130115322A1, “Therapeutic Compositions and Methods for Treating Cell Dysplasia Using Extracts From Raspberry and Strawberry” (priority 2003, published 2013)

Legend:
VEGF = details: reported; cited from earlier work
COX-2 = COX-2 expression in RE-149 DHD cells; type: cell-based, rat; details: RE-149 DHD cell lines
Description: (§1) Several BRB extracts and anthocyanins have been administered in JB6 CI 41 mouse epidermal cell lines and RE-149 DHD rat epithelium cancer cell lines, and such model systems are predictive of in vivo biological activity. As further discussed below, the BRB methanol fraction inhibits benzo(a)pyrene-7,8-diol-9,10-epoxide (B(a)PDE)-induced transactivation of transcription factor AP-1 and nuclear factor κB (NFκB, NFKB) activity in JB6 CI 41 cell lines; BRB ethanol extracts inhibited cell proliferation in RE-149 DHD cell lines; and the anthocyanins, cyanidin-3-O-glucoside and cyanidin-3-O-rutinoside derived from BRB ethanol extracts, suppressed the expression of COX-2 and iNOS in RE-149 DHD cell lines. A further embodiment is that even the unpurified components of the BRB ethanol extracts are believed to be safe for human consumption, being derived from a consumable foodstuff using consumable extraction solvents.

iNOS [1] = assay: iNOS expression in RE-149 DHD cells; type: cell-based, rat; details: RE-149 DHD cell lines
Description: as §1

[2] = system: azoxymethane-induced aberrant crypt foci; details: rat colon, Rao et al.; cited from earlier work
iNOS [3] = biological target: T1, iNOS (Homo sapiens, UniProt P35228); details: cytokine-induced colorectal adenocarcinoma DLD cells; cited from earlier work
T1 construct: its specificity for iNOS was established in cytokine-induced colorectal adenocarcinoma DLD cells; endogenous in cells; host or cells: cytokine-induced colorectal adenocarcinoma DLD cells

NMBA-induced tumors = details: Chen et al. 2004; cited from earlier work
[4] = system: normal, premalignant and malignant oral epithelial cell lines; assay: Growth and cytotoxicity in oral epithelial cell lines; type: cell-based, human
Description: In particular, using a panel of normal, premalignant and malignant oral epithelial cell lines, the cellular (growth inhibiting and cytotoxic) effects of phytochemicals found in black raspberry fractions was determined (i.e., F001, F003, DM, and ME/Et, see FIGS. 2A and 2B).

T1 sequence (P35228 whole entry): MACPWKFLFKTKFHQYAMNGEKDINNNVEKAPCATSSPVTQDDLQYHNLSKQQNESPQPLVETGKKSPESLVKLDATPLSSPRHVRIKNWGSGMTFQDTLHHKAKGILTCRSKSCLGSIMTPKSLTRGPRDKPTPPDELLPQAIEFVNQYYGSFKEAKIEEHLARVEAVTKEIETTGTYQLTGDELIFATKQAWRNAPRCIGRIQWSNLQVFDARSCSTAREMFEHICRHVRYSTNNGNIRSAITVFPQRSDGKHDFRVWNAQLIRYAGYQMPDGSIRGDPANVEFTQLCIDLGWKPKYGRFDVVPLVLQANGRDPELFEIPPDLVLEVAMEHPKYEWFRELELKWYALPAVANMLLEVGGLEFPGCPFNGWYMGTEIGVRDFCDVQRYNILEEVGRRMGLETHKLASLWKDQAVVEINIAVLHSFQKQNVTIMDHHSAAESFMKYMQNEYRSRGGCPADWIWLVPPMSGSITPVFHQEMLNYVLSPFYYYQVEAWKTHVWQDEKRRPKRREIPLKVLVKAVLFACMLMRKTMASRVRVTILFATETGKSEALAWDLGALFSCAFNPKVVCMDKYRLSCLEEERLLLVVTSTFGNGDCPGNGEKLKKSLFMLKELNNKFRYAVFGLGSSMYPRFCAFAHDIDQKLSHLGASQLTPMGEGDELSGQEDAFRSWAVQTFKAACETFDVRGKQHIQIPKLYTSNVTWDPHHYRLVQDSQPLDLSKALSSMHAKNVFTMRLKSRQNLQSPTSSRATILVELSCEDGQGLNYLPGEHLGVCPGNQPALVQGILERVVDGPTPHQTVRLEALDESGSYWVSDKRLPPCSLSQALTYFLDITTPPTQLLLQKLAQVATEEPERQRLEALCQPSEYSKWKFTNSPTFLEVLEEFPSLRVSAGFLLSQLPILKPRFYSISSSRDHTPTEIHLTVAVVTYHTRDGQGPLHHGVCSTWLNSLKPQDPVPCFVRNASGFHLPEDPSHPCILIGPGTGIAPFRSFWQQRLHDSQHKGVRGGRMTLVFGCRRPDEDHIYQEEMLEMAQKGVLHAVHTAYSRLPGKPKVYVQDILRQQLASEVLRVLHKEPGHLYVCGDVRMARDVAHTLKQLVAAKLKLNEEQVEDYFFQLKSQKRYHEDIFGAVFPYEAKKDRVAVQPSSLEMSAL

SMILES | angiogenesis by inhibiting VEGF expression (VEGF) | expression of COX-2 (COX-2) | expression of iNOS (iNOS [1]) | further results
CS(=O)(=O)Nc1ccc([N+](=O)[O-])cc1OC1CCCCC1 [NS-398] | effectively block angiogenesis | – | – | –
C[C@@H]1O[C@@H](OC[C@H]2O[C@@H](Oc3cc4c(O)cc(O)cc4[o+]c3-c3ccc(O)c(O)c3)[C@H](O)[C@@H](O)[C@@H]2O)[C@H](O)[C@H](O)[C@H]1O [cyanidin-3-O-rutinoside] | – | suppressed | suppressed | –
N=C(N)SCCc1ccc(CCSC(=N)N)cc1 [PBIT, S,S-1,4-phenylene-bis(1,2-ethanediyl)bis-isothiourea] | – | – | – | aberrant crypt foci formation, crypt multiplicity, and iNOS activity [2]: suppressed; selectivity for iNOS over endothelial and neuronal NOS (iNOS [3]): selectively inhibit iNOS; NMBA-induced tumors in the rat esophagus (NMBA-induced tumors): inhibit
Cc1nc(C2CCCCC2)c(-c2ccc(S(N)(=O)=O)c(F)c2)o1 [JTE-522] | effectively block angiogenesis | – | – | –
OC[C@H]1O[C@@H](Oc2cc3c(O)cc(O)cc3[o+]c2-c2ccc(O)c(O)c2)[C@H](O)[C@@H](O)[C@@H]1O [cyanidin-3-O-glucoside] | – | suppressed | suppressed | –
O=c1oc2c(O)c(O)cc3c(=O)oc4c(O)c(O)cc1c4c23 [Ellagic acid] | – | – | – | growth of oral cell lines [4]: potent, non-selective, inhibitor
